# Results: patent US7276531B2, “G-lactam derivatives as prostaglandin agonists” (Applied Research Systems ARS Holding N.V., priority 2003, dated 2007)
# What was measured:
# LPS-induced TNFα release = experiment: In vivo inhibition of LPS-induced TNFα release in mice; details: LPS 0.3 mg/kg i.p.
# Method: The anti-inflammatory activity of compounds of the invention may be assessed after a LPS challenge using the following protocol:
# Eight weeks old C3H/H mice (IFFA-CREDO, L'arbresle, France) receive an oral treatment with compounds of the invention 6 different doses (0.001, 0.01, 0.1, 1 or 3 and 10 mg/kg in 0.5% CMC/0.25% tween-20). Six mice are used by group. Fifteen minutes later, endotoxins (O111:B4 Sigma, 0.3 mg/kg) are intraperitoneally injected. Heparinized whole blood is collected by decapitation. TNFα level is determined in plasma by ELISA (R & D Systems, Abdingdon, UK). Control animals receive 0.5% CMC/0.25% tween-20 (10 ml/kg) as vehicle. Data obtained from experiments are expressed as the mean±SEM and analysed using one-way analysis of variance (ANOVA) followed by Dunnett's t-test.
# [1] = tested on: aspirin-induced gastric ulceration; experiment: In vivo inhibition of aspirin-induced gastric ulceration; details: rats
# Description: The activity of compounds of the invention as protective agents against gastric ulceration can be assayed as follows and as described in Guth et al., 1979. […]
# Four hours later, animals are sacrificed and gastric ulceration is scored for degree of hemorrhage and severity of ulcerative lesions as follows: 0=no hyperemia or bleeding, 1=hyperaemia, 2=slight spot bleeding, 3=hyperemia plus slight spot bleeding, 4=hyperemia plus spot bleeding within entire stomach. Reduction of concurrent control score values by 50 percent or more (≧50%) is considered significant.
smiles,measurement,setting,value
"CCCC/C(C)=C/C=C\[C@H]1CCC(=O)N1CCc1ccc(C(=O)O)cc1 [Example 3, 4-(2-{(2R)-2-[(1Z,3E)-4-methylocta-1,3-dienyl]-5-oxopyrrolidin-1-yl}ethyl)benzoic acid]",% of Inhibition of TNF Release Mean ± SEM,LPS-induced TNFα release; oral dose 0.001 mg/kg,41 ± 5%
same,% of Inhibition of TNF Release Mean ± SEM,LPS-induced TNFα release; oral dose 0.01 mg/kg,43 ± 7%
same,% of Inhibition of TNF Release Mean ± SEM,LPS-induced TNFα release; oral dose 0.1 mg/kg,63 ± 3%
same,% of Inhibition of TNF Release Mean ± SEM,LPS-induced TNFα release; oral dose 1 mg/kg,68 ± 3%
same,% of Inhibition of TNF Release Mean ± SEM,LPS-induced TNFα release; oral dose 10 mg/kg,83 ± 3%
same,percentage of protection (gastric ulceration),[1]; 10 mg/kg administered orally,65%
same,Ulceration scores,[1]; aspirin 150 mg/kg oral gavage,decreased in a dose-dependent manner
